“Also recorded” adds a separate entry of the source.
What was measured:
[1] = system: human skin; test: Human skin permeability, penetration of fluorescent markers, Franz Cell apparatus; conditions: compared to N-Ac-CHGVC-NH2
Experimental: A third cell adhesion assay involves evaluating the effect of a cyclic peptide on permeability of adherent epithelial and/or endothelial cell layers. For example, the effect of permeability on human skin may be evaluated. Such skin may be derived from a natural source or may be synthetic. Human abdominal skin for use in such assays may generally be obtained from humans at autopsy within 24 hours of death. Briefly, a cyclic peptide and a test marker (e.g., the fluorescent markers Oregon Green™ and Rhodamine Green™ Dextran) may be dissolved in a sterile buffer, and the ability of the marker to penetrate through the skin and into a receptor fluid may be measured using a Franz Cell apparatus (Franz, Curr. Prob. Dermatol. 7:58-68, 1978; Franz, J. Invest. Dermatol. 64:190-195, 1975). In general, a modulating agent that enhances the permeability of human skin results in a statistically significant increase in the amount of marker in the receptor compartment after 6-48 hours in the presence of 500 μg/mL modulating agent. This assay evaluates the effect of a modulating agent on E-cadherin mediated cell adhesion.
Abdominal skin from humans at autopsy within 24 hours of death was used in these assays. The effect of N-Ac-CHAVC-NH2 (SEQ ID NO:10) and N-Ac-CHGVC-NH2 (SEQ ID NO:20), used at a concentration of 500 μg/ml or 2.5 mg/ml, on the penetration of two fluorescent markers, Oregon Green 488 (charge −1, MW 386 daltons) and Rhodamine Green 3000 Dextran (no charge, MW 3000 daltons) through human skin was then evaluated utilizing a Franz Cell apparatus (Franz, Curr. Prob. Dermatol. 7:58-68, 1978; Franz, J. Invest. Dermatol. 64:190-195, 1975). The peptides and markers were dissolved in sterile phosphate buffer, pH 7.2, and phosphate buffer was used as the receptor fluid. 150 μl of solution containing 0.2 mg Oregon Green and 1.0 mg Rhodamine Green was used to evaluate 500 μg/ml peptide; 200 μl of solution containing 0.05 mg Oregon Green and 1.250 mg Rhodamine Green was used to evaluate 2.5 mg/ml peptide. The solution was placed on top of the epidermal side of the skin, and the penetration of the markers through the skin was assessed using a fluorescent spectrophotometric method (in a Perkin Elmer 650-105 Fluorescence Spectrophotometer, and comparing the reading to a standard curve) at 6, 12, 24, 36, and 48 hours after the start of the experiment. The fluorescent units were converted to a concentration unit of microgram/5 ml (volume of the receiver compartment) using a standard curve and regression analysis equations. The curve was linear for the concentrations tested for both markers (r^2=1 for OrG and 0.997 for RhG). For each peptide and marker combination, the experiment was performed in triplicate.

[2] = system: A1N4 human breast epithelial cells; test: Disruption of breast epithelial cell adhesion, E-cadherin immunostaining; assay type: cell-based; conditions: 500 μg/mL, 48 hours
Experimental: A1N4 human breast epithelial cells (kindly provided by Martha Stampfer, Lawrence Berkeley Laboratory, Berkeley, Calif.) were plated on glass coverslips and cultured in F12/DME containing 0.5% FCS and 10 ng/mL EGF for 24 hours. Fresh medium containing the cyclic peptides (final concentration 500 μg/mL media) N-Ac-CHAVC-NH2 (SEQ ID NO:10) or N-Ac-CHGVC-NH2 (SEQ ID NO:20) was then added. Following 24 hours of culture in the presence of the peptides, the medium was removed and fresh medium containing the peptides was added. The cells were fixed 24 hours later with cold methanol and stored in phosphate buffered saline (PBS).
Coverslips were blocked for 1 hour in 3% ovalbumin/PBS and incubated for a further 1 hour in the presence of 1 μg/mL mouse anti-E-cadherin antibody (Zymed, Gaithersburg, Md.). Primary and secondary antibodies were diluted in PBS containing 6% normal goat serum. Following incubation in the primary antibody, coverslips were washed 3 times for 5 minutes each in PBS and incubated for 1 hour with goat anti-mouse conjugated to fluorescein (Kiekegard and Perry, South San Francisco, Calif.) diluted 1:100. Following a further wash in PBS (3×5 minutes) coverslips were mounted in Vectashield (Vector Labs, Burlingame, Calif.) and viewed with a Zeiss infinity corrected microscope.

[3] = system: control 3T3 cells; test: Neurite outgrowth of rat cerebellar neurons on control 3T3 cells (Example 14); assay type: cell-based; conditions: increasing concentrations
Experimental: Cell culture and neurite outgrowth assays. Co-cultures of cerebellar neurons on monolayers of control 3T3 cells and monolayers of transfected 3T3 cells that express physiological levels of chick N-cadherin or human L1 were established as previously described (Williams et al., Neuron 13:583-594, 1994). In brief, 80,000 3T3 cells (control and transfected) were plated into individual chambers of an eight-chamber tissue culture slide coated with polylysine and fibronectin and cultured in DMEM/10% FCS. After 24 hours, when confluent monolayers had formed, the medium was removed and 3000 cerebellar neurons isolated from post-natal day 2-3 rats were plated into each well in SATO media (Doherty et al., Nature 343:464-466, 1990) supplemented with 2% FCS. All of the test peptides were added immediately before the neurons as a 2×stock prepared in SATO/2% FCS. […] The mean length of the longest neurite per cell was measured for 150-200 neurons sampled in replicate cultures as previously described (Williams et al., Neuron 13:583-594, 1994). […] Dose-response curves were evaluated and the EC50 values determined.
Effects of cyclic HAV peptides on N-cadherin function. […] The cells were then fixed and the length of the longest neurite on 150-200 neurons was determined by standard assay, as described above. […]

Structure (SMILES): CC(=O)N[C@H]1CSSC[C@@H](C(N)=O)NC(=O)[C@H](C(C)C)NC(=O)[C@H](C)NC(=O)[C@H](Cc2c[nH]cn2)NC1=O [N-Ac-CHAVC-NH2, N-Ac-Cys-His-Ala-Val-Cys-NH2]
- effect on penetration of Oregon Green through the skin, in words ([1]; 500 μg/ml): slightly increased the penetration of Oregon Green
- effect on penetration of Rhodamine Green through the skin, in words ([1]; 500 μg/ml): significantly increased
- effect on penetration of Oregon Green through the skin, in words ([1]; 2.5 mg/ml): increased the penetration of Oregon Green
- effect on penetration of Rhodamine Green through the skin, in words ([1]; 2.5 mg/ml): significantly increased
- E-cadherin staining and monolayer of A1N4 cells [2]: reduced E-cadherin staining with a stitched appearance; also recorded: distribution of E-cadherin is non-contiguous
- effect on neurite extension over control 3T3 cells [3]: no significant effect on neurite extension over control 3T3 cells; also recorded: had no effect on the basal growth over 3T3 cells
